{
  "source": "patent US20250207131A1",
  "about": "“MODIFIED RNA AGENTS WITH REDUCED OFF-TARGET EFFECT” (Alnylam Pharmaceuticals, Inc., priority 2018, published 2025)",
  "key": {"DNA Pol-γ": {"biological_target": "T1, DNA Pol-γ (Homo sapiens, UniProt P54098)", "T1 sequence (P54098 1-1239)": "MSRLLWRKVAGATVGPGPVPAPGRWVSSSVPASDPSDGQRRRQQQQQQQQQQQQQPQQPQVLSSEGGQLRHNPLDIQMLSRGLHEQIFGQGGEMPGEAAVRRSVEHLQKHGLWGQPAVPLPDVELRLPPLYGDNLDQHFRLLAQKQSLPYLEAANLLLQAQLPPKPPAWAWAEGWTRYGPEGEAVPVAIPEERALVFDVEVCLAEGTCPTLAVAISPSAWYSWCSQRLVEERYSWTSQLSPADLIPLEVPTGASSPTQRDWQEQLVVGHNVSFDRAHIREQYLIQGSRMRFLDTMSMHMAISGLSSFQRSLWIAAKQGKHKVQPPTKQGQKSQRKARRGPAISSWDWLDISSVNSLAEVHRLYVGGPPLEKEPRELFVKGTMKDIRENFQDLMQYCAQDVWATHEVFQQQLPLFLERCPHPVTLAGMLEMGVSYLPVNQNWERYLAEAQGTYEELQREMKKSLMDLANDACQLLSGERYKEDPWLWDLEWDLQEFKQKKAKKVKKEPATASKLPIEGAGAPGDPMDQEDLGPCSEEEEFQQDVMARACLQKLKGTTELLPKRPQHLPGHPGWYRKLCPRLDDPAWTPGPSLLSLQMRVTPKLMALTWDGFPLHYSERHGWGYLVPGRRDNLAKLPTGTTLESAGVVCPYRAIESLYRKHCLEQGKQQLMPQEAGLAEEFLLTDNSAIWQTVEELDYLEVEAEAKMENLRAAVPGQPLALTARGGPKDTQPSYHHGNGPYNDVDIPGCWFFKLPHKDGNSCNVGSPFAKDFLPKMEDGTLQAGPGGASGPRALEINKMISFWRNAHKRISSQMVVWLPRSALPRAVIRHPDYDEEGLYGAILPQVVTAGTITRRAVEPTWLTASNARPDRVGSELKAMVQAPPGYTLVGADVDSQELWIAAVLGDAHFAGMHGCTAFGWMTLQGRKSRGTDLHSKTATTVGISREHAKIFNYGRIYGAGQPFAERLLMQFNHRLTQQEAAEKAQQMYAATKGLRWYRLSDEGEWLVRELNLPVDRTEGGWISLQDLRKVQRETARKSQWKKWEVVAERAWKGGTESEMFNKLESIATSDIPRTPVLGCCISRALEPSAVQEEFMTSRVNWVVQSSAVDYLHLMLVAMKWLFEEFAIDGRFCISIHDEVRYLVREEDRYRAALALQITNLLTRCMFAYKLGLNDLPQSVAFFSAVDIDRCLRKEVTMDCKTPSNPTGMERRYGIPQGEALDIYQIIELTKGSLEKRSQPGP", "assay": "Triphosphate incorporation assay by DNA Pol-γ", "type": "biochemical", "details": "100 nM template, 100 nM primer, 40 Units of enzyme, 1 mM or 100 μM dNTPs, 30 min, 37° C.", "experimental": "(§1) 5′-(R)- and (S)—C-Me-guanosine triphosphate Evaluations: 5′-(R)- and (S)—C-Me-guanosine triphosphate were evaluated with Pol-RMT and DNA Pol-γ. Mitochondrial toxicity is a common feature with nucleoside analog drugs (liver/metabolic effects, myopathies, peripheral neuropathy). Replication of mitochondria occurs during all phases of cell cycle, including post-mitotic cells. Mito replication in post-mitotic cells becomes preferential consumer of endogenous nucleotide pools. Mitochondrial polymerases (pol-γ, Pol-RMT) have limited exonuclease (proofreading) capability. Alterations/effects to nuclear DNA more likely to manifest in other test systems. […] Analytical IEX-HPLC with fluorescence detection for optimal resolution of primer-extended products is used to detect—especially important in competition mixtures. This assays was applied for the assessment of incorporation efficiencies.\nThe reaction conditions were: Reaction: 100 nM template, 100 nM primer, 40 Units of enzyme and 1 mM or 100 μM dNTPs, 30 min, 37° C.; diluted to 5 nM primer and analyzed by FLD-IEX-HPLC (Ex: 437, Em: 483 nm)."}, "Pol-RMT": {"biological_target": "Pol-RMT (Homo sapiens, UniProt O00411)", "sequence (O00411 42-1230, species assumed)": "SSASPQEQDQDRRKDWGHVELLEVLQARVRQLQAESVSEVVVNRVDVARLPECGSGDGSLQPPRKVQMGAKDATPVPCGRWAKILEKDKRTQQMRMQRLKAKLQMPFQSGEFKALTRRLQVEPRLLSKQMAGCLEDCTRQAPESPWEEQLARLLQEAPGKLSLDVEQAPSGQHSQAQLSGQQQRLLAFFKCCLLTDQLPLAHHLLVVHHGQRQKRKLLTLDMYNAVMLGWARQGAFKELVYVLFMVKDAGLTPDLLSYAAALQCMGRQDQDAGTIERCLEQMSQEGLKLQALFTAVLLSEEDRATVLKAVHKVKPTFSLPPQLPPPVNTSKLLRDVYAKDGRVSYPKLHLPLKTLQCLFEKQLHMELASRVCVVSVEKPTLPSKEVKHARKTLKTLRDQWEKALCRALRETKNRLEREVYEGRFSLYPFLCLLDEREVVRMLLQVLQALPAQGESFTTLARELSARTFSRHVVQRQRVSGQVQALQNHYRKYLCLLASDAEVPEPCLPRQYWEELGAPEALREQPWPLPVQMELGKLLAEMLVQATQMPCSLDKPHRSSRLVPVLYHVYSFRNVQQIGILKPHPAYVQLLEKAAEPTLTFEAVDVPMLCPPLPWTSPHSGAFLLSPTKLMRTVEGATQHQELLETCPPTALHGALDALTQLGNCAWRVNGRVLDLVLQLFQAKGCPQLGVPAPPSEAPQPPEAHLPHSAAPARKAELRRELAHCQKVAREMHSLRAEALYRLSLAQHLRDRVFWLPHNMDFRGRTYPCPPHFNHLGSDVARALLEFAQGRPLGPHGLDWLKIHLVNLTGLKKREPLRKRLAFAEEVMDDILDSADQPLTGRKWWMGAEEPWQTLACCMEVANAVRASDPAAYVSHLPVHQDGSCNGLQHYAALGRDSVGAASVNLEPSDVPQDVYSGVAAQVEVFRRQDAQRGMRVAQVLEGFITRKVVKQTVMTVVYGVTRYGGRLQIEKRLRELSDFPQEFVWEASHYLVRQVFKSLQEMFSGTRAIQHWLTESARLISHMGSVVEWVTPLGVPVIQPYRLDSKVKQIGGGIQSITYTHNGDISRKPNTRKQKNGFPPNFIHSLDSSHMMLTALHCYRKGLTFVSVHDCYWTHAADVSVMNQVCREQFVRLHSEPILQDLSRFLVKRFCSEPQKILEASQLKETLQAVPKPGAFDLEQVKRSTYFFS", "assay": "Triphosphate incorporation assay by Pol-RMT", "type": "biochemical", "details": "200 nM template, 50 nM primer, 300 nM enzyme, 1 mM or 100 μM NTPs, 30 min, 35° C.", "experimental": "as §1\nThe reaction conditions were; 200 nM template, 50 nM primer, 300 nM enzyme and 1 mM or 100 μM NTPs, 30 min, 35° C."}, "[1]": {"details": "rat, in vivo, sc, 30 mg/kg"}, "GO1 (HAO1)": {"system": "GO1 (HAO1)", "assay": "In vitro on-target activity, primary mouse hepatocytes, transfection, RT-qPCR (GO1/HAO1 siRNAs)", "type": "cell-based", "details": "HAO1 (Seq 1)", "experimental": "Cell culture and transfections: Primary Mouse Hepatocytes (Thermo Fisher Scientific/Gibco) were transfected by adding 4.9 μL of Opti-MEM plus 0.1 μL of Lipofectamine RNAiMax per well (Invitrogen, cat #13778-150) to 5 μL of siRNA duplexes per well into a 384-well plate and incubated at room temperature for 15 minutes. 40 μL of Dulbecco's Modified Eagle Medium (Hep3b) or William's Medium (PMH) containing ˜5 ×10^3 cells were then added to the siRNA mixture. Cells were incubated for 24 hours at 37° C. and then processed for RNA purification. Experiments were performed at 10 nM and 0.1 nM doses of siRNA.\nTotal RNA isolation using DYNABEADS mRNA Isolation Kit: RNA was isolated using an automated protocol on a BioTek-EL406 platform using DYNABEADs (Invitrogen, cat #61012). Briefly, 70 μL of Lysis/Binding Buffer and 10 μL of lysis buffer containing 3 μL of magnetic beads were added to each well. […]\nReal time PCR: 2 μL of cDNA were added to a master mix containing 2 μL water, 0.5 μL of either an appropriate GAPDH TaqMan VIC Probe or the target probe and 5 μL Lightcycler 480 probe master mix (Roche, cat #04887301001) per well in a 384 well plate (Roche, cat #04887301001). […] To calculate relative fold change, real time data were analyzed using the ΔΔCt method and normalized to assays performed with cells transfected with a non-targeting control siRNA."}, "[2]": {"system": "luciferase reporter plasmids (psiCHECK2, Renilla luciferase fused to target sequence)", "assay": "Off-target Dual-Glo luciferase reporter assay in COS-7 cells", "type": "cell-based", "details": "HAO1 (Seq 1); luciferase reporter plasmids co-transfected with siRNAs into COS-7 cells", "experimental": "Dual-Glo® Luciferase assay: Cos7 cells (ATCC, Manassas, VA) were grown to near confluence at 37° C. in an atmosphere of 5% CO2 in DMEM (ATCC) supplemented with 10% FBS, before being released from the plate by trypsinization. siRNA and psiCHCECK2 plasmid transfection was carried out by adding 5 μL of siRNA duplexes and 5 μL of psiCHECK2 plasmid per well along with 5 μL of Opti-MEM plus 0.1 μL of Lipofectamine 2000 per well (Invitrogen, Carlsbad CA. cat #13778-150) and then incubated at room temperature for 15 minutes. The mixture was then added to the cells which were re-suspended in 35 ul of fresh complete media. The transfected cells were incubated at 37° C. in an atmosphere of 5% CO2.\n48 hours after the siRNAs and psiCHECK2 plasmid were transfected; Firefly (transfection control) and Renilla (fused to target sequence) luciferase were measured. First, media was removed from cells. Then Firefly luciferase activity was measured by adding 20 μL of Dual-Glo® Luciferase Reagent equal to the culture medium volume to each well and mix. The mixture was incubated at room temperature for 30 minutes before luminescence (500 nm) was measured on a Spectramax (Molecular Devices) to detect the Firefly luciferase signal. Renilla luciferase activity was measured by adding 20 μL of room temperature of Dual-Glo® Stop & Glo® Reagent was added to each well and the plates were incubated for 10-15 minutes before luminescence was again measured to determine the Renilla luciferase signal. The Dual-Glo® Stop & Glo® Reagent, quenches the firefly luciferase signal and sustained luminescence for the Renilla luciferase reaction. siRNA activity was determined by normalizing the Renilla signal to the Firefly (control) signal within each well. The magnitude of siRNA activity was then assessed relative to cells that were transfected with the same vector but were not treated with siRNA or were treated with a non-targeting siRNA. All transfections were done at n=2 or greater."}, "[3]": {"assay": "Rat toxicity study, clinical pathology parameters", "details": "rats, single subcutaneous dose 30 mg/kg, cohort average"}},
  "data": [
    {"compound": "C[C@@H](OP(=O)(O)OP(=O)(O)OP(=O)(O)O)[C@H]1O[C@@H](n2cnc3c(=O)[nH]c(N)nc32)[C@H](O)[C@@H]1O", "note": "[5′-(R)—C-Me-GTP, 5′-(R)—C-Me-guanosine triphosphate]", "values": [
      {"measurement": "incorporation by Pol-γ", "setting": "DNA Pol-γ", "value": "Neither 5′-(S) nor (R)—C-Me-Gtp incorporate in Pol-γ at high concentrations"},
      {"measurement": "incorporation by Pol-RMT", "setting": "Pol-RMT", "value": "appears not incorporate in Pol-RMT"}
    ]},
    {"compound": "C[C@H](OP(=O)(O)OP(=O)(O)OP(=O)(O)O)[C@H]1O[C@@H](n2cnc3c(=O)[nH]c(N)nc32)[C@H](O)[C@@H]1O", "note": "[5′-(S)—C-Me-G triphosphate (GTP), 5′-(S)—C-Me-guanosine triphosphate]", "values": [
      {"measurement": "incorporation by Pol-γ", "setting": "DNA Pol-γ", "value": "Neither 5′-(S) nor (R)—C-Me-Gtp incorporate in Pol-γ at high concentrations"},
      {"measurement": "incorporation by Pol-RMT", "setting": "Pol-RMT", "value": "incorporates in Pol-RMT at high concentrations"}
    ]},
    {"compound": "Parent (AD-65644): GO1 siRNA; passenger g•a•auguGaaAGucaucgacaa(L), guide u•U•gucGaUGacuuUcAcauuc•u•g (sense AUGUGAAAGUCAUCGACAA; antisense GUCGAUGACUUUCACAUUC; phosphorothioate ends, overhangs, chemistry not fully specified)", "values": [
      {"measurement": "A/G Avg.", "setting": "[1]", "value": 1.1},
      {"measurement": "On-Target mRNA remaining (%) 0.1 nM siRNA", "setting": "GO1 (HAO1); 0.1 nM siRNA", "value": 96.1, "unit": "%"},
      {"measurement": "On-Target mRNA remaining (%) 10 nM siRNA", "setting": "GO1 (HAO1); 10 nM siRNA", "value": 27.7, "unit": "%"},
      {"measurement": "IC50", "setting": "[2]", "value": 0.53, "unit": "nM"},
      {"measurement": "ALB Avg.", "setting": "[3]", "value": 3.0, "unit": "g/dL"},
      {"measurement": "ALP Avg.", "setting": "[3]", "value": 449, "unit": "U/L"},
      {"measurement": "ALT Avg.", "setting": "[3]", "value": 47, "unit": "U/L"},
      {"measurement": "AST Avg.", "setting": "[3]", "value": 180, "unit": "U/L"},
      {"measurement": "BILI Avg.", "setting": "[3]", "value": 0.52, "unit": "mg/dL"},
      {"measurement": "CA Avg.", "setting": "[3]", "value": 10.3, "unit": "mg/dL"},
      {"measurement": "CHOL Avg.", "setting": "[3]", "value": 74, "unit": "mg/dL"},
      {"measurement": "CREAT Avg.", "setting": "[3]", "value": 0.23, "unit": "mg/dL"},
      {"measurement": "GLDH Avg.", "setting": "[3]", "value": 77.5, "unit": "U/L"},
      {"measurement": "GLOB Avg.", "setting": "[3]", "value": 2.63, "unit": "g/dL"},
      {"measurement": "GLUC Avg.", "setting": "[3]", "value": 113, "unit": "mg/dL"},
      {"measurement": "K Avg.", "setting": "[3]", "value": 4.3, "unit": "mmol/L"},
      {"measurement": "NA Avg.", "setting": "[3]", "value": 140, "unit": "mmol/L"},
      {"measurement": "PHOS Avg.", "setting": "[3]", "value": 8.8, "unit": "mg/dL"},
      {"measurement": "PROT Avg.", "setting": "[3]", "value": 6, "unit": "g/dL"},
      {"measurement": "TRIG Avg.", "setting": "[3]", "value": 138, "unit": "mg/dL"},
      {"measurement": "UREAN Avg.", "setting": "[3]", "value": 16.8, "unit": "mg/dL"}
    ]}
  ]
}
